The source of these data is PubChem BioAssay (NCI).

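Five compound concentrations were applied to cells in 96-well plates for 48 hours; endpoints were derived by simple linear interpolation of the resulting dose-response curve. TGI is the concentration that stops growth completely.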 Where only a bound is given, the exact number is not on record here.

Among the test systems are HCC-2998 colon; HOP-62 NSCLC; HS 578T breast; MDA-MB-231 breast; OVCAR-5 ovarian; SK-MEL-5 melanoma; SNB-19 CNS; UACC-62 melanoma; NCI-H226 lung; SF-539 CNS.
Common to all, as to assay: growth of human tumour cells (NCI), 48 h

Take `CC(=O)/C=C(\O)c1[nH]c(C(=O)O)cc1C1CCN(Cc2ccccc2)C1=O` (centres undefined): the TGI was 46.4 µM in the experiment on HCC-2998 colon; 32.8 µM in the experiment with HOP-62 NSCLC; greater than 100 µM with HS 578T breast; greater than 100 µM in the experiment with MDA-MB-231 breast; 80.2 µM with OVCAR-5 ovarian; 42.9 µM in the experiment on SK-MEL-5 melanoma. Besides, the TGI in the experiment on SNB-19 CNS worked out at 83.5 µM; with UACC-62 melanoma it was 41.7 µM.
With `Cc1ccc(S(=O)(=O)NC(=O)NC(Cc2ccc(O)c(O)c2)C(=O)O)cc1` (centres undefined), the TGI in the experiment on HOP-62 NSCLC, in the experiment with MDA-MB-231 breast, with NCI-H226 lung, in the experiment on OVCAR-5 ovarian, with SK-MEL-5 melanoma and in the experiment on SNB-19 CNS was greater than 100 µM in each case. The TGI in the experiment on UACC-62 melanoma was greater than 100 µM.
For the compound `c1ccc(C(CCN2CC3CCC(CC3)C2)c2ccccc2)cc1`, the TGI in the experiment with HOP-62 NSCLC is 70.5 µM; with HS 578T breast, 50.5 µM; in the experiment on MDA-MB-231 breast, 38.3 µM; in the experiment with NCI-H226 lung, 35.6 µM; in the experiment with OVCAR-5 ovarian it was 56.8 µM; with SF-539 CNS, 29.5 µM. Also, the values for the TGI in the experiment with SK-MEL-5 melanoma, with SNB-19 CNS and in the experiment on UACC-62 melanoma were 30.1 µM, greater than 100 µM and 35.3 µM, respectively.
For the compound `CCN(CC)CCCOc1cc2c(cc1OC)C(=O)N1CCC[C@H]1C=N2`, the TGI was 92.1 µM in the experiment on HOP-62 NSCLC; greater than 100 µM with HS 578T breast; greater than 100 µM in the experiment on MDA-MB-231 breast; 65.8 µM in the experiment on NCI-H226 lung; greater than 100 µM in the experiment with OVCAR-5 ovarian; greater than 100 µM in the experiment with SF-539 CNS. The figures for the TGI in the experiment with SK-MEL-5 melanoma, with SNB-19 CNS and with UACC-62 melanoma were 63.7 µM, greater than 100 µM and 54.3 µM, respectively.
As for `Cc1cc2nc(N3C(=O)/C(=C/c4ccc(Cl)cc4)N=C3c3ccccc3)sc2cc1C`, the TGI is 48.5 µM in the experiment on HCC-2998 colon; greater than 100 µM in the experiment on HOP-62 NSCLC; 74.2 µM in the experiment with HS 578T breast; greater than 100 µM in the experiment on MDA-MB-231 breast; 92.7 µM in the experiment with OVCAR-5 ovarian; greater than 100 µM with SF-539 CNS. Moreover, the TGI with SK-MEL-5 melanoma is 43.6 µM; with SNB-19 CNS it was greater than 100 µM; in the experiment on UACC-62 melanoma, greater than 100 µM.
With `CCN(CC)C(=O)N1CN(c2ccccc2)C2(CCN(CCCSc3ccc(F)cc3)CC2)C1=O`, the TGI in the experiment on HS 578T breast was 16.6 µM; with NCI-H226 lung, 44.4 µM; in the experiment with OVCAR-5 ovarian, 36.9 µM; in the experiment with SF-539 CNS, 20.7 µM; with SK-MEL-5 melanoma it was 12.3 µM; in the experiment with SNB-19 CNS it was greater than 100 µM.
Take `CC(=O)Oc1ccc(/C=C/C(=O)O[C@H]2CCCC[C@@H]2OC(=O)/C=C/c2ccc(OC(C)=O)c(OC(C)=O)c2)cc1OC(C)=O`: the TGI with HCC-2998 colon was 32.6 µM; in the experiment with HOP-62 NSCLC, 32.2 µM; with HS 578T breast it was greater than 100 µM; in the experiment on MDA-MB-231 breast, greater than 100 µM; in the experiment on OVCAR-5 ovarian, 28.4 µM; in the experiment with SF-539 CNS it was greater than 100 µM. Besides, the TGI stood at 15.1 µM with SK-MEL-5 melanoma, 27.6 µM in the experiment with SNB-19 CNS and 17.7 µM in the experiment on UACC-62 melanoma.
Turning to `C=C1C(=O)O[C@@H]2[C@H](O)[C@@H](C)[C@@H]3C=CC(=O)[C@@]3(C)[C@H](OC(=O)C=C(C)C)[C@H]12`, the TGI was determined as 3.23 µM in the experiment on HCC-2998 colon; 11.4 µM in the experiment on HOP-62 NSCLC; 4.17 µM in the experiment with NCI-H226 lung; 4.67 µM in the experiment on OVCAR-5 ovarian; 0.596 µM in the experiment on SF-539 CNS; 3.78 µM in the experiment with SK-MEL-5 melanoma. For the same compound, the TGI turned out to be 17.2 µM with SNB-19 CNS and 1.87 µM in the experiment on UACC-62 melanoma.
For the compound `C[C@]1(O)O[C@@H]2OCC[C@@H]2C2=C1C(=O)c1ccccc1C2=O`, the TGI in the experiment with HCC-2998 colon was 40.6 µM; with HOP-62 NSCLC, 26.7 µM; in the experiment on HS 578T breast, 82.4 µM; in the experiment on MDA-MB-231 breast, 49.3 µM; in the experiment on OVCAR-5 ovarian, 32.4 µM; in the experiment on SF-539 CNS it was 31.7 µM. Also, the TGI in the experiment on SK-MEL-5 melanoma amounted to 24.8 µM; in the experiment on SNB-19 CNS it was 35.2 µM; with UACC-62 melanoma, 39.5 µM.
`COc1ccc(-c2cc(-c3cc(F)c(Cl)cc3Cl)on2)cc1OC`: the TGI is greater than 100 µM with HOP-62 NSCLC; greater than 100 µM with HS 578T breast; greater than 100 µM in the experiment on MDA-MB-231 breast; 80.6 µM in the experiment with NCI-H226 lung; greater than 100 µM in the experiment on OVCAR-5 ovarian; 27 µM with SF-539 CNS. The TGI is 43.3 µM with SK-MEL-5 melanoma and greater than 100 µM with SNB-19 CNS.
Turning to `O=[N+]([O-])c1ccc2c(c1)c(S(=O)(=O)O)cc1nonc12`, the TGI with HOP-62 NSCLC, in the experiment on HS 578T breast, in the experiment on MDA-MB-231 breast, with NCI-H226 lung, in the experiment on OVCAR-5 ovarian and with SF-539 CNS was greater than 100 µM each time. The TGI with SK-MEL-5 melanoma, with SNB-19 CNS and in the experiment on UACC-62 melanoma was greater than 100 µM in each case.
Turning to `O=C1CCCC2=C1CC1=C(CCCC1=O)N2c1ccccc1`, the TGI in the experiment with HCC-2998 colon, in the experiment on HS 578T breast, in the experiment with NCI-H226 lung, in the experiment with OVCAR-5 ovarian, in the experiment on SF-539 CNS and in the experiment on SK-MEL-5 melanoma was greater than 100 µM each time. Further, the TGI in the experiment on SNB-19 CNS and in the experiment on UACC-62 melanoma was greater than 100 µM in each case.
Turning to `c1ccc2c(c1)CC1COc3ccccc3C1O2` (centres undefined), the TGI in the experiment on HCC-2998 colon, in the experiment with HOP-62 NSCLC, in the experiment on MDA-MB-231 breast, in the experiment on NCI-H226 lung, in the experiment with OVCAR-5 ovarian and in the experiment on SF-539 CNS was greater than 100 µM each time. In addition, the TGI is 37.9 µM in the experiment with SK-MEL-5 melanoma and greater than 100 µM with UACC-62 melanoma.
`Cc1nc2ccccc2n1Cc1nnc(N)o1`: the TGI with HCC-2998 colon, with HOP-62 NSCLC, with HS 578T breast, in the experiment with MDA-MB-231 breast, with OVCAR-5 ovarian and in the experiment with SF-539 CNS was greater than 100 µM in each case. Moreover, the TGI in the experiment on SK-MEL-5 melanoma, with SNB-19 CNS and in the experiment on UACC-62 melanoma was greater than 100 µM each time.
Take `CC(=O)OCC1OC(O/C=C(\CN=[N+]=[N-])C(C)=O)C(OC(C)=O)C(OC(C)=O)C1OC(C)=O` (centres undefined): the TGI was 35 µM in the experiment with HCC-2998 colon; 70.7 µM in the experiment on HOP-62 NSCLC; greater than 100 µM in the experiment with HS 578T breast; 27.7 µM with MDA-MB-231 breast; 32.9 µM in the experiment on OVCAR-5 ovarian; 26.2 µM in the experiment on SK-MEL-5 melanoma. The results for the TGI in the experiment on SNB-19 CNS and in the experiment with UACC-62 melanoma were 83.8 µM and 25.3 µM, respectively.
